SMILES strings stand for the structures. pIC50: −log10 of the molar value.

The test has as its system human HEp2 cells. To be noted: read-out: Dark toxicity (IC50), overnight incubation, Cell Titer Blue, from dose-response curves. For orientation: Alamar Blue is a resazurin reagent that responds to reducing activity.

Regarding `COc1ccc(C2=C3C=C(Cl)C(c4ccc(OC)cc4)=[N+]3[B-](F)(F)n3c2cc(Cl)c3-c2ccc(NC(=S)NCCOCCOCCOCCC(=O)N[C@@H](CC(C)C)C(=O)N[C@@H](C)C(=O)N[C@@H](CCCNC(=N)N)C(=O)N[C@@H](CC(C)C)C(=O)N[C@@H](CC(C)C)C(=O)N[C@H](C(N)=O)[C@@H](C)O)cc2)cc1` [Conjugate 8, BODIPY-3PEG-LARLLT-NH2], the pIC50 (in general, the IC50 on a negative log10 scale, so that one unit is a factor of ten) was 4.01.

The record behind these values is publication PMC5507552 (Bioconjugate chemistry, 2017).
